Assay results from US9427604B2, “Use of benzyloxy-ethylamine derivatives as a preservative, preservation method, and compositions” (L'OREAL, priority 2009, dated 2016).

What was measured:
Format in all cases: cell-based
Details in all cases: 7 days at 22° C.
[1] = tested on: Aspergillus niger (An) ATCC 6275; assay: Challenge test (artificial contamination) in aqueous solution, A. niger
Experimental: (§1) The antimicrobial efficacy of compounds of formula (I) was evaluated via the challenge test or artificial contamination method after having introduced said compounds into water. The method of the challenge test consists of an artificial contamination of the sample with microbial strains from collection (bacteria, yeasts and moulds) and of an evaluation of the number of revivable microorganisms seven days after inoculation. […] 5 pure cultures of microorganisms are used. [table] The strains of gram−bacteria (Escherichia coli and Pseudomonas aeruginosa), gram+bacterium (Enterococcus faecalis), yeast (Candida albicans), and mould (Aspergillus niger) are inoculated into subculturing medium, respectively the day before inoculation for the bacteria and the yeast, and 5 days before inoculation for the mould. On the day of inoculation: • a suspension in tryptone salt diluent is prepared, respectively, for the bacteria and the yeast, so as to obtain by spectrophotometer a suspension with an optical density of between 35% and 45% of transmitted light at 544 nm; • for the mould, the spores are collected by washing the agar with 6 to 7 ml of harvesting solution and the suspension is recovered in a sterile tube or flask. After having homogenized the microbial suspension, 0.2 ml of inoculum (the suspensions are used pure: between 1×10^8 and 3×10^8 CFU per ml) are placed in each pill bottle and the microbial suspension is completely homogenized in the 20 g of product (=aqueous solution containing the compounds of formula (I) at the concentrations indicated) using a spatula. The content of microorganisms present in the product corresponds after homogenization to a concentration of 10^6 microorganisms per gram of product, i.e. inoculation to 1% of an inoculum containing 10^8 microorganisms per ml. After 7 days of contact time between the microorganisms and the product at 22° C.±2° C. and in the dark, ten-fold dilutions are carried out and the number of revivable microorganisms remaining in the product is counted.

[2] = tested on: Candida albicans (Ca) ATCC 10231; assay: Challenge test (artificial contamination) in aqueous solution, C. albicans
Experimental: as §1

[3] = tested on: Pseudomonas aeruginosa (Pa) ATCC 19429; assay: Challenge test (artificial contamination) in aqueous solution, P. aeruginosa
Experimental: as §1

[4] = tested on: Enterococcus faecalis (Ef) ATCC 33186; assay: Challenge test (artificial contamination) in aqueous solution, E. faecalis
Experimental: as §1

[5] = tested on: Escherichia coli (Ec) ATCC 8739; assay: Challenge test (artificial contamination) in aqueous solution, E. coli
Experimental: as §1

[6] = content 0.01% in water, final pH 7, inoculation level 10^6 microorganisms/g
[7] = content 0.05% in water, final pH 7, inoculation level 10^6 microorganisms/g
[8] = content 0.1% in water, final pH 7.2, inoculation level 10^6 microorganisms/g
[9] = content 0.25% in water, final pH 6.9, inoculation level 10^6 microorganisms/g
[10] = content 0.5% in water, final pH 7.4, inoculation level 10^6 microorganisms/g
[11] = content 0.75% in water, final pH 7.4, inoculation level 10^6 microorganisms/g
[12] = content 1% in water, final pH 7.5, inoculation level 10^6 microorganisms/g
[13] = content 1% in water, final pH 6.6, inoculation level 10^6 microorganisms/g

## Cl.NCCOCc1ccccc1 [Compound A]
[1]; [6]
  No. of CFU/gram of product at T7 days, A. niger: 1.4 × 10^6 CFU/gram of product
[1]; [7]
  No. of CFU/gram of product at T7 days, A. niger: 1.3 × 10^6 CFU/gram of product
[1]; [8]
  No. of CFU/gram of product at T7 days, A. niger: 1.0 × 10^6 CFU/gram of product
[1]; [9]
  No. of CFU/gram of product at T7 days, A. niger: 1.0 × 10^6 CFU/gram of product
[1]; [10]
  No. of CFU/gram of product at T7 days, A. niger: 6.2 × 10^5 CFU/gram of product
[1]; [11]
  No. of CFU/gram of product at T7 days, A. niger: 1.6 × 10^5 CFU/gram of product
[1]; [12]
  No. of CFU/gram of product at T7 days, A. niger: 3.6 × 10^4 CFU/gram of product
[2]; [6]
  No. of CFU/gram of product at T7 days, C. albicans: 3.2 × 10^6 CFU/gram of product
[2]; [7]
  No. of CFU/gram of product at T7 days, C. albicans: 3.0 × 10^6 CFU/gram of product
[2]; [8]
  No. of CFU/gram of product at T7 days, C. albicans: 2.8 × 10^6 CFU/gram of product
[2]; [9]
  No. of CFU/gram of product at T7 days, C. albicans: 2.3 × 10^6 CFU/gram of product
[2]; [10]
  No. of CFU/gram of product at T7 days, C. albicans: 1.3 × 10^6 CFU/gram of product
[2]; [11]
  No. of CFU/gram of product at T7 days, C. albicans: 5.8 × 10^3 CFU/gram of product
[2]; [12]
  No. of CFU/gram of product at T7 days, C. albicans: <200 CFU/gram of product
[3]; [6]
  No. of CFU/gram of product at T7 days, P. aeruginosa: 9.0 × 10^6 CFU/gram of product
[3]; [7]
  No. of CFU/gram of product at T7 days, P. aeruginosa: 1.9 × 10^6 CFU/gram of product
[3]; [8]
  No. of CFU/gram of product at T7 days, P. aeruginosa: 1.5 × 10^5 CFU/gram of product
[3]; [9]
  No. of CFU/gram of product at T7 days, P. aeruginosa: 3.0 × 10^3 CFU/gram of product
[3]; [10]
  No. of CFU/gram of product at T7 days, P. aeruginosa: <200 CFU/gram of product
[3]; [11]
  No. of CFU/gram of product at T7 days, P. aeruginosa: <200 CFU/gram of product
[3]; [12]
  No. of CFU/gram of product at T7 days, P. aeruginosa: <200 CFU/gram of product
[4]; [6]
  No. of CFU/gram of product at T7 days, E. faecalis: 4.1 × 10^5 CFU/gram of product
[4]; [7]
  No. of CFU/gram of product at T7 days, E. faecalis: 3.3 × 10^5 CFU/gram of product
[4]; [8]
  No. of CFU/gram of product at T7 days, E. faecalis: 6.9 × 10^4 CFU/gram of product
[4]; [9]
  No. of CFU/gram of product at T7 days, E. faecalis: 1.2 × 10^3 CFU/gram of product
[4]; [10]
  No. of CFU/gram of product at T7 days, E. faecalis: <200 CFU/gram of product
[4]; [11]
  No. of CFU/gram of product at T7 days, E. faecalis: <200 CFU/gram of product
[4]; [12]
  No. of CFU/gram of product at T7 days, E. faecalis: <200 CFU/gram of product
[5]; [6]
  No. of CFU/gram of product at T7 days, E. coli: 7.4 × 10^6 CFU/gram of product
[5]; [7]
  No. of CFU/gram of product at T7 days, E. coli: 6.2 × 10^6 CFU/gram of product
[5]; [8]
  No. of CFU/gram of product at T7 days, E. coli: 1.9 × 10^6 CFU/gram of product
[5]; [9]
  No. of CFU/gram of product at T7 days, E. coli: 2.8 × 10^3 CFU/gram of product
[5]; [10]
  No. of CFU/gram of product at T7 days, E. coli: <200 CFU/gram of product
[5]; [11]
  No. of CFU/gram of product at T7 days, E. coli: <200 CFU/gram of product
[5]; [12]
  No. of CFU/gram of product at T7 days, E. coli: <200 CFU/gram of product

## Cl.c1ccc(CNCCOCc2ccccc2)cc1 [Compound B]
[1]; [13]
  No. of CFU/gram of product at T7 days, A. niger: <200 CFU/gram of product
[2]; [13]
  No. of CFU/gram of product at T7 days, C. albicans: <200 CFU/gram of product
[3]; [13]
  No. of CFU/gram of product at T7 days, P. aeruginosa: <200 CFU/gram of product
[4]; [13]
  No. of CFU/gram of product at T7 days, E. faecalis: <200 CFU/gram of product
[5]; [13]
  No. of CFU/gram of product at T7 days, E. coli: <200 CFU/gram of product
